Data published in US7214366B2, “Isolatable, water soluble, and hydrolytically stable active sulfones of poly(ethylene glycol) and related polymers for modification of surfaces and molecules” (Nektar Therapeutics AL, Corporation, priority 1993, dated 2007).

Conditions: pH 7

## poly(ethylene glycol) chloroethyl sulfone [PEG chloroethyl sulfone]
  stability in water, NMR after extraction: stable
